Results on 14 molecules are retold here after PubChem BioAssay AID180 (DTP/NCI, 2004).

Where “and” joins values, the source holds several entries; their conditions need not be identical. Equal entries are not always repeated.

The test relates to BDF1 mice, Adenocarcinoma 755 s.c., tumor weight T/C. Nature of the test: NCI In Vivo Anticancer Drug Screen. Data for tumor model Adenocarcinoma 755 (subcutaneous) in B6D2F1 (BDF1) mice. Conditions: endpoint: mean tumor weight, schedule: Q01DX011 (ip), higher = larger tumour. The gist of the method: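 Values express treated (T) relative to vehicle-dosed control (C) animals, based on survival or tumour size measured after compound treatment of mice bearing a transplanted tumour.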

The mark [1] stands for this setting: dose: 225.0 mg/kg/injection, vehicle: methylcellulose (MC).
Setting [2] is: dose: 25.0 mg/kg/injection, vehicle: methylcellulose (MC).
[3] abbreviates: dose: 75.0 mg/kg/injection, vehicle: methylcellulose (MC).
[4] abbreviates: dose: 150.0 mg/kg/injection, vehicle: methylcellulose (MC).
Where [5] appears, read: dose: 100.0 mg/kg/injection, vehicle: methylcellulose (MC).
[6] abbreviates: dose: 200.0 mg/kg/injection, vehicle: methylcellulose (MC).

The T/C is the ratio of treated to control. For the molecule `CCCCn1nnc2c(N)nc(N)nc21`, the T/C is 123 % of control (dose: 62.0 mg/kg/injection, vehicle: methylcellulose (MC)); 70 % of control (dose: 125.0 mg/kg/injection, vehicle: methylcellulose (MC)); 56 % of control under setting [1].

In the case of `Nc1nc(SCc2ccccc2Cl)c2ncn(C3CCCCC3)c2n1`, the T/C is 180 % of control under setting [2] and 166 % of control under setting [3].

Consider `C=CCn1cnc2c(=S)nc[nH]c21`, for which the T/C (dose: 0.37 mg/kg/injection, vehicle: saline) is 49 % of control; the T/C (dose: 0.5 mg/kg/injection, vehicle: saline) was 82 % of control; the T/C (dose: 0.75 mg/kg/injection, vehicle: saline) is 72 % of control; the T/C (dose: 1.0 mg/kg/injection, vehicle: saline) is 48 % of control; the T/C (dose: 2.0 mg/kg/injection, vehicle: alkali diluted with saline) was 7 % of control; the T/C (dose: 2.25 mg/kg/injection, vehicle: alkali diluted with saline) is 3 % of control. Further, the T/C is 5 % of control (dose: 2.75 mg/kg/injection, vehicle: alkali diluted with saline); 9 % of control (dose: 3.0 mg/kg/injection, vehicle: alkali diluted with saline); 1 % of control (dose: 6.0 mg/kg/injection, vehicle: alkali diluted with saline); 2 % of control (dose: 12.5 mg/kg/injection, vehicle: alkali diluted with saline).

Take `Cc1ccc(N=Nc2c(S(=O)(=O)O)cc3cc(NC(=O)Nc4ccc5c(O)c(N=Nc6ccc7cc(S(=O)(=O)O)ccc7c6)c(S(=O)(=O)O)cc5c4)ccc3c2O)cc1`: the T/C was 66 % of control (dose: 45.0 mg/kg/injection, vehicle: methylcellulose (MC)); 42 % of control (dose: 65.0 mg/kg/injection, vehicle: methylcellulose (MC)); 30 % of control under setting [4].

Turning to `Cc1cnc(Cl)nc1Sc1nc(N)nc2nc[nH]c12`, the T/C by setting is: (dose: 0.5 mg/kg/injection, vehicle: methylcellulose (MC)) 56 % of control; (dose: 0.75 mg/kg/injection, vehicle: carboxymethylcellulose (CMC)) 31 % of control; (dose: 1.0 mg/kg/injection, vehicle: carboxymethylcellulose (CMC)) 31 % of control and 38 % of control; (dose: 1.0 mg/kg/injection, vehicle: methylcellulose (MC)) 52 % of control; (dose: 1.5 mg/kg/injection, vehicle: carboxymethylcellulose (CMC)) 11 % of control; (dose: 3.0 mg/kg/injection, vehicle: carboxymethylcellulose (CMC)) 8 % of control and 11 % of control. In addition, the T/C by setting is: (dose: 3.0 mg/kg/injection, vehicle: methylcellulose (MC)) 35 % of control; (dose: 6.0 mg/kg/injection, vehicle: carboxymethylcellulose (CMC)) 8 % of control.

In the case of `O=c1ccn(C2OC(CO)C(O)C2O)c(=O)[nH]1` (stereo not drawn), the T/C by setting is: (dose: 17.5 mg/kg/injection, vehicle: other) 57 % of control; (dose: 35.0 mg/kg/injection, vehicle: other) 39 % of control; (dose: 35.0 mg/kg/injection, vehicle: saline) 30 % of control; (dose: 70.0 mg/kg/injection, vehicle: other) 105 % of control; (dose: 70.0 mg/kg/injection, vehicle: saline) 75 % of control; (dose: 140.0 mg/kg/injection, vehicle: other) 82 % of control. Also, the T/C is 32 % of control (dose: 140.0 mg/kg/injection, vehicle: saline); 56 % of control (dose: 280.0 mg/kg/injection, vehicle: other); 42 % of control (dose: 280.0 mg/kg/injection, vehicle: saline).

With `Cc1n[nH]c(=O)[nH]c1=O`, the T/C was 59 % of control (dose: 400.0 mg/kg/injection, vehicle: other) and 72 % of control (dose: 800.0 mg/kg/injection, vehicle: other).

With `CC(C)Cn1cnc2c(SCCCc3ccccc3)nc(N)nc21`, the T/C under setting [2] is 72 % of control; the T/C (dose: 50.0 mg/kg/injection, vehicle: methylcellulose (MC)) is 39 % of control; the T/C under setting [5] is 10 % of control; the T/C under setting [6] is 8 % of control.

Regarding `CC1CN1P(=O)(Oc1ccccc1)N1CC1C` (stereo not drawn), the T/C is 89 % of control and 106 % of control (dose: 12.5 mg/kg/injection, vehicle: saline); 90 % of control and 78 % of control (dose: 25.0 mg/kg/injection, vehicle: saline); 42 % of control and 50 % of control (dose: 50.0 mg/kg/injection, vehicle: saline).

In the case of `N=[N+]=CC(=O)OCC(N)C(=O)O` (stereo not drawn), the T/C is 124 % of control (dose: 0.9 mg/kg/injection, vehicle: carboxymethylcellulose (CMC)); 111 % of control (dose: 1.8 mg/kg/injection, vehicle: carboxymethylcellulose (CMC)); 72 % of control (dose: 2.31 mg/kg/injection, vehicle: carboxymethylcellulose (CMC)); 90 % of control and 78 % of control (dose: 3.6 mg/kg/injection, vehicle: carboxymethylcellulose (CMC)); 61 % of control (dose: 4.63 mg/kg/injection, vehicle: carboxymethylcellulose (CMC)); 62 % of control and 74 % of control (dose: 4.8 mg/kg/injection, vehicle: carboxymethylcellulose (CMC)). In addition, the T/C is, setting by setting: (dose: 7.2 mg/kg/injection, vehicle: carboxymethylcellulose (CMC)) 28 % of control and 40 % of control and 51 % of control; (dose: 7.4 mg/kg/injection, vehicle: carboxymethylcellulose (CMC)) 50 % of control; (dose: 9.25 mg/kg/injection, vehicle: carboxymethylcellulose (CMC)) 50 % of control and 66 % of control; (dose: 12.33 mg/kg/injection, vehicle: carboxymethylcellulose (CMC)) 23 % of control; (dose: 18.5 mg/kg/injection, vehicle: carboxymethylcellulose (CMC)) 10 % of control.

In the case of `C/C(=N\NC(=O)c1ccncc1)c1cc(Cl)ccc1Cl`, the T/C (dose: 30.0 mg/kg/injection, vehicle: methylcellulose (MC)) is 51 % of control and the T/C (dose: 60.0 mg/kg/injection, vehicle: methylcellulose (MC)) was 27 % of control.

With `CC(CN1CCN(C)CC1)CN1c2ccccc2Sc2ccc(C(F)(F)F)cc21` (stereo not drawn), the T/C is 64 % of control (dose: 17.5 mg/kg/injection, vehicle: methylcellulose (MC)); 52 % of control (dose: 35.0 mg/kg/injection, vehicle: methylcellulose (MC)); 58 % of control (dose: 70.0 mg/kg/injection, vehicle: methylcellulose (MC)).

As for `O=C(CCBr)NCCCCCNC(=O)CCBr`, the T/C is 86 % of control (dose: 56.0 mg/kg/injection, vehicle: methylcellulose (MC)); 71 % of control (dose: 113.0 mg/kg/injection, vehicle: methylcellulose (MC)); 78 % of control under setting [1]; 47 % of control (dose: 450.0 mg/kg/injection, vehicle: methylcellulose (MC)).

For `CC(C)CCS(=O)(=O)OCCCCOS(=O)(=O)CCC(C)C`, the T/C under setting [3] was 67 % of control; the T/C under setting [5] was 34 % of control; the T/C under setting [4] was 89 % of control; the T/C under setting [6] was 5 % of control; the T/C (dose: 300.0 mg/kg/injection, vehicle: methylcellulose (MC)) is 60 % of control; the T/C (dose: 400.0 mg/kg/injection, vehicle: carboxymethylcellulose (CMC)) was 56 % of control. Also, the T/C was 20 % of control (dose: 400.0 mg/kg/injection, vehicle: methylcellulose (MC)); 33 % of control (dose: 600.0 mg/kg/injection, vehicle: carboxymethylcellulose (CMC)); 75 % of control (dose: 600.0 mg/kg/injection, vehicle: methylcellulose (MC)).
